Source: US9796700B2 (Celgene CAR LLC, priority 2013, dated 2017)

Assays:
[1] = test system: p-RSK (ERK activity) in cells after compound washout; test: Measurement of duration of action of test compounds (pRSK after washout); format: cell-based; conditions: 6 hr after compound washout
Method: The protocol below describes an assay to measure the kinase activity of ERK1 to phosphorylate its substrate, RSK, in the presence of a test compound. This experiment was conducted using a Mesoscale Discovery plate. The day before the assay, HT29 cells were split and plated at 50,000 cells/well in complete growth media. After allowing cells to adhere, the media was removed and replaced with media containing 0.1% FBS and incubated overnight. Blank MDS plates were coated with 25 μl/well RSK capture antibody and incubated at 4° C. overnight. The next day, the media was removed and replaced with 100 μl of media containing a test compound and incubated for 120 minutes at 37° C. The media was removed and replaced with 55 μl of well lysis buffer with protease and phosphatase inhibitors provided in the kit, followed by incubation at 4° C. for 30 minutes. 50 μl of lysate was transferred to a blocked MSD plate, followed by incubation at room temperature for 2 hours under constant shaking. The plate was washed 3 times with MSD wash buffer (cat#R617TX), and 25 μl/well phospho-RSK (pRSK) detection antibody was added with an appropriate Sulfo-tagged anti-species detection antibody diluted in 1% BSA in MSD wash buffer. This mixture was incubated for 1 hour at room temperature under constant shaking. The plate was washed 3 times, and 150 μl 1×MSD read buffer was added, followed by signal detection in an MSD plate reader.
Measurement of Duration of Action of Test Compounds
One day before the assay, the cells were split and added at 50,000 cells per well in flat-bottom 96 well plate in 200 μl of growth media. The next day, the medium was discarded, 100 μl medium containing test compounds was added, and the plate was incubated at 37° C. for 120 minutes. The medium was discarded, and the cells were rinsed 3 times with PBS followed by addition of 200 μl of fresh grow medium. The plate was returned to a 37° C. incubator, and separate cell lysates were made using MSD lysis buffer after 0.25, 0.5, 1, 2, 4, 6, 8 and 18 or 24 hours. Thereafter, pRSK was measured as described above in the section entitled pRSK MSD Assay. The data is presented in Table A under the column titled “p-RSK inhibition at 6 hr (%).”

Erk1 [2] = molecular target: T1, Erk1 (Homo sapiens (Human), UniProt P27361); test: Measurement of Erk occupancy with biotinylated covalent probe I-299; format: cell-based; conditions: HT-29 cells
Method: Measurement of Erk Occupancy with Biotinylated Covalent Probe
This experiment measured occupancy of the ERK1 target by compounds according to the invention. This experiment was conducted using the Mesoscale Discovery test kit (Cat. #N45107B). One day before the assay, cells were split and added at 50,000 cells per well to a flat-bottom 96 well plate in 200 μl of growth medium. The next day, the medium was discarded, 100 μl medium containing test compound was added, and the plate was incubated at 37° C. for 120 minutes. The plate was rinsed once with PBS, and 50 μl lysis buffer with test compound was added. The plate was incubated at 4° C. for 30 min, and 30 μl of lysate was transferred to a plate to capture total and phosphor-Erk. Biotinylated probe I-299 was diluted in lysis buffer and added to each well to a final concentration of 0.2 μM. The plate was incubated for 2 hr under constant shaking at room temperature. The plate was washed 3 times with MSD wash buffer. To detect the biotinylated probe bonding, tagged streptavidin was added (MSD, Cat#R32AD-1) at 1 μg/ml, 25 μl/well, followed by a 60 min incubation under shaking. The plate was washed 3 times, 150 μl MSD Read Buffer (Cat#R61TX) was added and the plate was read in a plate reader manufactured by MSD. Percent occupancy by test compound at Erk was calculated by comparing the chemiluminescence readings from treated cells as compared to the chemiluminescence readings in untreated controls (which are defined as 100% probe bonding or 0% occupancy). The amount of covalent probe signal divided by the amount of ERK signal for samples with no test compound treatment represents the maximum probe signal (MPS). In samples treated with test compound prior to covalent probe, the ratio of probe signal to ERK signal (the test probe signal, TPS) was reduced by the degree of target occupancy by the test compound which blocks covalent probe binding. The difference between the MPS and the TPS, divided by the MPS gave the target occupancy by the test compound. This ratio was then expressed as a percent occupancy. Results from this assay are provided in Table A below under the column “Occupancy EC50 (nM) HT-29.”
Target sequence in this assay (P27361 2-379 limits assumed): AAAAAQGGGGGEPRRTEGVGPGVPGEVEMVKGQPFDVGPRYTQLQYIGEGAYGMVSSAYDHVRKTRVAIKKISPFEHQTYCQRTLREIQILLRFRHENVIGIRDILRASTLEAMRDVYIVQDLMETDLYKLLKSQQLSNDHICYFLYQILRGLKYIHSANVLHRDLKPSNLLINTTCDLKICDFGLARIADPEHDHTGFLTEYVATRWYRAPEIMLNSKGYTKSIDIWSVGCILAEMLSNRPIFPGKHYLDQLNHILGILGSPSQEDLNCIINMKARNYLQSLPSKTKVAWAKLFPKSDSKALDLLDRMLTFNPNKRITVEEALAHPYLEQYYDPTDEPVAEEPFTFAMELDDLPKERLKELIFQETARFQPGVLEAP

Erk1 [3] = molecular target: T1, Erk1; test: Protein Mass Modification Assay (intact protein MALDI); format: binding
Outline: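 Percent covalent modification comes from the intact-protein MALDI centroid mass shift, treated versus control, divided by compound MW. Before analysis, human Erk1 was exposed to compound at 10-fold excess over protein for 60 min at room temperature.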
Target sequence in this assay (P27361 whole entry, looked up): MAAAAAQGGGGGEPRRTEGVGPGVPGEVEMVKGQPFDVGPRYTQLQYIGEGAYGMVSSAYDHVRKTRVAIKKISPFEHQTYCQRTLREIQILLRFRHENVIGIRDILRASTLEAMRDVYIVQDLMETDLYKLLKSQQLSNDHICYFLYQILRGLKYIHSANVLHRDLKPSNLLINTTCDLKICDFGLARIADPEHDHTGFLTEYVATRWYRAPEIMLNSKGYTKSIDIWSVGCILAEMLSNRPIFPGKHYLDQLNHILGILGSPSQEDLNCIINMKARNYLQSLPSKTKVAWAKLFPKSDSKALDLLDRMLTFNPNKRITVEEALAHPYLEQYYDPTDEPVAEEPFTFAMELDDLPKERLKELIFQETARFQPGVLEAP

MEK1 activated ERK1 = MEK1 activated ERK1 (Homo sapiens (Human), UniProt P27361); test: Omnia continuous-read kinase assay for potency against MEK1 activated ERK1; format: biochemical; conditions: MEK1 activated ERK1, WT, ATP at KM
MEK1 activated ERK1, sequence (P27361 whole entry): as the sequence (P27361 whole entry, looked up) above
Outline: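 Apparent IC50 came from initial reaction slopes (RFU vs time) plotted against log inhibitor with a variable-slope fit. Reactions were started with ERK1 (4 nM final) added to 50 μM ATP, roughly at its appKM, and 10 μM Sox-conjugated ST17 peptide in 20 mM Tris pH 7.5, 5 mM MgCl2. Fluorescence was monitored every 71 seconds.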

- EC50 (Erk1 [2]): < 100 nM
- ERK1 Mass Mod (%) (Erk1 [3]): E (provided a mass modification of ≧70%)
- IC50 (MEK1 activated ERK1): < 0.1 µM
Structure (SMILES): C=CC(=O)Nc1ccccc1Nc1nc(Nc2cc(C(N)=O)ccc2C)ncc1C(F)(F)F [Compound I-68, 3-(4-(2-Acrylamidophenylamino)-5-(trifluoromethyl)pyrimidin-2-ylamino)-4-methylbenzamide]
- p-RSK inhibition at 6 hr (%) [1]: E (provided a p-RSK inhibition percent of ≧70%)
